Experimental data: ChEMBL document CHEMBL1149882, “Sesterterpenoids from the sponge Sarcotragus sp” (J Nat Prod, 2008)
pIC50: −log10 of the molar value. In brackets after ≈: the same amount, converted by molar mass.

Key:
Micrococcus luteus = test: Antimicrobial activity against Micrococcus luteus IFC12708; assay type: functional
Staphylococcus aureus [1] = test: Antimicrobial activity against Staphylococcus aureus ATCC 65389; assay type: functional
Bacillus subtilis = test: Antimicrobial activity against Bacillus subtilis ATCC 6633; assay type: functional
Escherichia coli = test: Antimicrobial activity against Escherichia coli ATCC 11775; assay type: functional
Salmonella typhimurium = test: Antimicrobial activity against Salmonella Typhimurium ATCC 14028; assay type: functional, Salmonella enterica subsp. enterica serovar Typhimurium; conditions: Salmonella enterica
Proteus vulgaris = test: Antimicrobial activity against Proteus vulgaris ATCC 3851; assay type: functional
Staphylococcus aureus [2] = test: Antimicrobial activity against methicillin-resistant Staphylococcus aureus ATCC 43300; assay type: functional
Staphylococcus aureus [3] = test: Antimicrobial activity against methicillin-resistant Staphylococcus aureus ATCC 700787; assay type: functional
Staphylococcus aureus [4] = test: Antimicrobial activity against methicillin-resistant Staphylococcus aureus ATCC 700788; assay type: functional
Isocitrate lyase = Isocitrate lyase (Candida albicans, UniProt Q9P8Q7); test: Inhibition of Candida albicans isocitrate lyase
K562 = test: Cytotoxicity against human K562 cells by MTT assay; assay type: functional; conditions: read-out: LC50 (the source's name)

Isocitrate lyase, sequence (Q9P8Q7 whole entry): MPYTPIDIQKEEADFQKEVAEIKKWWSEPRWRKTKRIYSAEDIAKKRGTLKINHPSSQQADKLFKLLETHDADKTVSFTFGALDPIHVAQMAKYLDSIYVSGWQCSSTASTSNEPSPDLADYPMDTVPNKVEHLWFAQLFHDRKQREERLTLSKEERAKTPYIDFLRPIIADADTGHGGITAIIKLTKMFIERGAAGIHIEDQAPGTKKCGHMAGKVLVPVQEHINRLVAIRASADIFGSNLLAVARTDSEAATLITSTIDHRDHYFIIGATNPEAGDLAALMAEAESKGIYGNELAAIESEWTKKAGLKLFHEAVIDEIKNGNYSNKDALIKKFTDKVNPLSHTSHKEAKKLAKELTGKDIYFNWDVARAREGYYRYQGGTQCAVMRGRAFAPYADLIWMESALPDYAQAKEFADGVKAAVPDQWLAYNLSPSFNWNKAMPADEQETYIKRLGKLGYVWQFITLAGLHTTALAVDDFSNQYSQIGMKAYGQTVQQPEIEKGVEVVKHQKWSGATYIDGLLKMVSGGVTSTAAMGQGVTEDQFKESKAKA

Row | SMILES | MIC (Micrococcus luteus) [µg/mL] | MIC (Staphylococcus aureus [1]) [µg/mL] | MIC (Bacillus subtilis) [µg/mL] | MIC (Escherichia coli) [µg/mL] | MIC (Salmonella typhimurium) [µg/mL] | MIC (Proteus vulgaris) [µg/mL] | MIC (Staphylococcus aureus [2]) [µg/mL] | MIC (Staphylococcus aureus [3]) [µg/mL] | MIC (Staphylococcus aureus [4]) [µg/mL] | pIC50 (Isocitrate lyase) | CC50 (K562) [µg/mL]
1 | COC(=O)C(C)(O)[C@](O)(C[C@H](C)CC/C=C(/C)CC/C=C(/C)CCCC1=CCN(CC(=O)O)C1=O)C(=O)OC (stereo not given in full) | > 100 | > 100 | > 100 | > 100 | > 100 | > 100 | > 100 | > 100 | > 100 | 3.45 | > 100
2 | Cc1onc(-c2ccccc2)c1C(=O)N[C@@H]1C(=O)N2[C@@H]1SC(C)(C)[C@@H]2C(=O)O [OXACILLIN] |  |  |  |  |  |  | 25 (≈ 62.3 µM) | 50 (≈ 125 µM) | 25 (≈ 62.3 µM) |  | 
3 | COC(=O)C(C)(O)[C@](O)(C[C@H](C)CC/C=C(/C)CC/C=C(/C)CCCc1ccoc1)C(=O)OC (stereo not given in full) | > 100 | > 100 | > 100 | > 100 | > 100 | > 100 | > 100 | > 100 | > 100 | 3.73 | 34 (≈ 71 µM)
4 | CC1=C(O)/C(=C/[C@H](C)CC/C=C(/C)CC/C=C(/C)CCCC2=CC(=O)OC2O)OC1=O (stereo not given in full) | 50 (≈ 116 µM) | > 100 | > 100 | > 100 | > 100 | > 100 | 100 (≈ 232 µM) | 100 (≈ 232 µM) | > 100 | 4.04 | > 100
5 | CC1=C(O)/C(=C/[C@H](C)CC/C=C(/C)CC/C=C(/C)CCCc2ccoc2)OC1=O | 3.12 (≈ 7.84 µM) | 3.12 (≈ 7.84 µM) | 3.12 (≈ 7.84 µM) | > 100 | 6.25 (≈ 15.7 µM) | 6.25 (≈ 15.7 µM) | 6.25 (≈ 15.7 µM) | 6.25 (≈ 15.7 µM) | 12.5 (≈ 31.4 µM) | 4.09 | 62 (≈ 156 µM)
6 | C/C(=C/CC[C@@H](C)CC(=O)O)CC/C=C(/C)CCCc1ccoc1 | 6.25 (≈ 18.8 µM) | 25 (≈ 75.2 µM) | 25 (≈ 75.2 µM) | > 100 | 12.5 (≈ 37.6 µM) | 25 (≈ 75.2 µM) | 12.5 (≈ 37.6 µM) | 25 (≈ 75.2 µM) | 25 (≈ 75.2 µM) | 3.62 | > 100
7 | CC1=C(O)/C(=C/[C@H](C)CCC/C(C)=C/CC/C(C)=C/CCC2=CC(O)OC2=O)OC1=O (stereo not given in full) | 50 (≈ 116 µM) | > 100 | > 100 | > 100 | > 100 | > 100 | > 100 | > 100 | > 100 | 4.54 | > 100
8 | COC(=O)C(C)(O)[C@](O)(C[C@H](C)CCC/C(C)=C/CC/C(C)=C/CCC1=CCN(CC(=O)O)C1=O)C(=O)OC (stereo not given in full) | > 100 | > 100 | > 100 | > 100 | > 100 | > 100 | > 100 | > 100 | > 100 | < 3.44 | > 100
9 | C/C(=C/CC[C@@H](C)CC(=O)O)CC/C=C(/C)CCCC1=CC(=O)OC1=O | 100 (≈ 276 µM) | > 100 | > 100 | > 100 | > 100 | > 100 | > 100 | > 100 | > 100 | 4.26 | > 100
10 | COC1C=C(CC/C=C(\C)CC/C=C(\C)CCC[C@@H](C)/C=C2\OC(=O)C(C)=C2O)C(OC)O1 (stereo not given in full) | 50 (≈ 109 µM) | 100 (≈ 217 µM) | 50 (≈ 109 µM) | > 100 | > 100 | 100 (≈ 217 µM) | 50 (≈ 109 µM) | 50 (≈ 109 µM) | 100 (≈ 217 µM) | 4.04 | 80 (≈ 174 µM)
11 | COC(=O)C(C)(O)[C@](O)(C[C@H](C)CCC/C(C)=C/CC/C(C)=C/CCc1ccoc1)C(=O)OC (stereo not given in full) | 100 (≈ 209 µM) | > 100 | > 100 | > 100 | > 100 | > 100 | > 100 | > 100 | > 100 | < 3.38 | 20 (≈ 41.8 µM)
12 | C=C(CC(=O)O)C(=O)O [ITACONATE] |  |  |  |  |  |  |  |  |  | 4.42 | 
13 | CC1(C)S[C@@H]2[C@H](NC(=O)[C@H](N)c3ccccc3)C(=O)N2[C@H]1C(=O)O [AMPICILLIN] | 12.5 (≈ 35.8 µM) | 1.56 (≈ 4.47 µM) | 3.12 (≈ 8.94 µM) | 1.56 (≈ 4.47 µM) | 1.56 (≈ 4.47 µM) | 3.12 (≈ 8.94 µM) |  |  |  |  | 
14 | COC(=O)C(C)(O)[C@@](O)(C[C@H](C)CC/C=C(/C)CC/C=C(/C)CCCc1ccoc1)C(=O)OC (stereo not given in full) | 50 (≈ 104 µM) | > 100 | > 100 | > 100 | > 100 | > 100 | > 100 | > 100 | > 100 | 3.60 | 46 (≈ 96.1 µM)
15 | CC1=C(O)/C(=C/[C@H](C)CCC/C(C)=C/CC/C(C)=C/CCc2ccoc2)OC1=O | 12.5 (≈ 31.4 µM) | 12.5 (≈ 31.4 µM) | 6.25 (≈ 15.7 µM) | > 100 | 25 (≈ 62.7 µM) | 12.5 (≈ 31.4 µM) | 50 (≈ 125 µM) | 50 (≈ 125 µM) | 50 (≈ 125 µM) | 4.09 | 39 (≈ 97.9 µM)
16 | COC1C=C(CCC/C(C)=C\CC/C(C)=C\CC[C@@H](C)/C=C2\OC(=O)C(C)=C2O)C(OC)O1 (stereo not given in full) | 50 (≈ 109 µM) | 100 (≈ 217 µM) | 50 (≈ 109 µM) | > 100 | > 100 | > 100 | 100 (≈ 217 µM) | 100 (≈ 217 µM) | 100 (≈ 217 µM) | 4.02 | 83 (≈ 180 µM)
17 | CC1=C(O)/C(=C/[C@H](C)CC/C=C(/C)CC/C=C(/C)CCCC2=CC(O)OC2=O)OC1=O (stereo not given in full) | 100 (≈ 232 µM) | > 100 | > 100 | > 100 | > 100 | > 100 | > 100 | > 100 | > 100 |  | > 100
18 | C/C(=C\CCc1ccoc1)CC/C=C(\C)CCC[C@@H](C)CC(=O)O | 12.5 (≈ 37.6 µM) | 100 (≈ 301 µM) | > 100 | > 100 | 50 (≈ 150 µM) | 50 (≈ 150 µM) | 25 (≈ 75.2 µM) | 100 (≈ 301 µM) | > 100 | < 3.22 | > 100
19 | CC1=C(O)/C(=C/[C@H](C)CCC/C(C)=C/CCC(C)(O)CCCc2ccoc2)OC1=O (stereo not given in full) | 100 (≈ 240 µM) | > 100 | > 100 | > 100 | > 100 | > 100 | 100 (≈ 240 µM) | > 100 | > 100 | 4.25 | > 100
